{
  "source": "paper PMC12959773",
  "about": "(Protein & Cell, 2025)",
  "experiment_in_all_cases": "[2H]-cystine uptake, isotope tracking",
  "type_in_all_cases": "cell-based",
  "settings_in_all_cases": "HEK293 cells transfected with SLC7A13 and SLC3A1; labelled compound",
  "key": {"[1]": {"target": "T1, SLC7A13-SLC3A1 complex (Homo sapiens, UniProt Q8TCU3, T225A)", "T1 construct": "heterodimeric light/heavy chain transporter, dimer of heterodimers; ectopically expressed in HEK293T / HEK293 cells (Expi293 for cryo-EM); with Amino acid transporter heavy chain SLC3A1", "T1 sequence (Q8TCU3 1-470 T225A)": "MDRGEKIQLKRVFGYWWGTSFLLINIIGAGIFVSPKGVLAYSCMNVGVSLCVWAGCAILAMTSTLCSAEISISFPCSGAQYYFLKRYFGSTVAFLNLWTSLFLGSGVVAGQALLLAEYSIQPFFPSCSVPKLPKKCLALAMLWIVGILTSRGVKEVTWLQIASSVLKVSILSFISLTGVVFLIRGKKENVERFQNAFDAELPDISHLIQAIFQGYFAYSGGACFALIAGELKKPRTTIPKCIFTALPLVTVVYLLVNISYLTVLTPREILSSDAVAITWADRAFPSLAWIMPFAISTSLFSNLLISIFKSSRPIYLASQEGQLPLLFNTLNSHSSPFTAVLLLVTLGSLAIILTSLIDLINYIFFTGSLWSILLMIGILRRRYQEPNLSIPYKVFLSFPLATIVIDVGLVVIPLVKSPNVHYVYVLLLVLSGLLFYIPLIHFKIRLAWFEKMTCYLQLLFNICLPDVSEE", "T1 sequence (Q07837 1-685 partner)": "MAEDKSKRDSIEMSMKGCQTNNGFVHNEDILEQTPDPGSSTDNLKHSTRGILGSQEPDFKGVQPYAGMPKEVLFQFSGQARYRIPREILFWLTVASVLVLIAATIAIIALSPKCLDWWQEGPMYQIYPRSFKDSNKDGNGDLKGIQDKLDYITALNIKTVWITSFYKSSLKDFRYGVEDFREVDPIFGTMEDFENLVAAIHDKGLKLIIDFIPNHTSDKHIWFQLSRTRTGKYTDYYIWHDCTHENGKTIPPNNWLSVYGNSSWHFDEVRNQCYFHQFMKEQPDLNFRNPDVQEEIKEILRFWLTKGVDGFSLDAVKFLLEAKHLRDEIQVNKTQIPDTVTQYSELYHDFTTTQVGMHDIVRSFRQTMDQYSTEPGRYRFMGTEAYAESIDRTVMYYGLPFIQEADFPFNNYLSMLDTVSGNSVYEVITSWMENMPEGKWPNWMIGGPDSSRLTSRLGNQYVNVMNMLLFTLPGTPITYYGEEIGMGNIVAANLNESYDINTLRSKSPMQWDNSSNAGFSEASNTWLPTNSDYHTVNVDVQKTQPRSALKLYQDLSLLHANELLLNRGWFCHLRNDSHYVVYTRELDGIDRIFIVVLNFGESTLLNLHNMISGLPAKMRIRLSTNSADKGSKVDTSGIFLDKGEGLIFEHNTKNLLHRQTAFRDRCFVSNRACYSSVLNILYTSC"}, "[2]": {"target": "T2, SLC7A13-SLC3A1 complex (Homo sapiens, UniProt Q8TCU3, S219A)", "T2 construct": "heterodimeric light/heavy chain transporter, dimer of heterodimers; ectopically expressed in HEK293T / HEK293 cells (Expi293 for cryo-EM); with Amino acid transporter heavy chain SLC3A1", "T2 sequence (Q8TCU3 1-470 S219A)": "T1 sequence (Q8TCU3 1-470 T225A) with S219A, A225T", "T2 sequence (Q07837 1-685 partner)": "T1 sequence (Q07837 1-685 partner)"}, "[3]": {"target": "T3, SLC7A13-SLC3A1 complex (Homo sapiens, UniProt Q8TCU3, F224A)", "T3 construct": "heterodimeric light/heavy chain transporter, dimer of heterodimers; ectopically expressed in HEK293T / HEK293 cells (Expi293 for cryo-EM); with Amino acid transporter heavy chain SLC3A1", "T3 sequence (Q8TCU3 1-470 F224A)": "T1 sequence (Q8TCU3 1-470 T225A) with F224A, A225T", "T3 sequence (Q07837 1-685 partner)": "T1 sequence (Q07837 1-685 partner)"}, "[4]": {"target": "T4, SLC7A13-SLC3A1 complex (Homo sapiens, UniProt Q8TCU3, C223A)", "T4 construct": "heterodimeric light/heavy chain transporter, dimer of heterodimers; ectopically expressed in HEK293T / HEK293 cells (Expi293 for cryo-EM); with Amino acid transporter heavy chain SLC3A1", "T4 sequence (Q8TCU3 1-470 C223A)": "T1 sequence (Q8TCU3 1-470 T225A) with C223A, A225T", "T4 sequence (Q07837 1-685 partner)": "T1 sequence (Q07837 1-685 partner)"}},
  "note": "Residue numbers refer to the chain shown, from its start.",
  "data": [
    {"smiles": "N[C@@H](CSSC[C@H](N)C(=O)O)C(=O)O", "note": "[cystine]", "values": [
      {"measurement": "cystine uptake", "setting": "[1]", "value": "mutation in any of the seven SLC7A13-specific residues to alanine significantly reduced SLC7A13’s transporter activities"},
      {"measurement": "cystine uptake", "setting": "[2]", "value": "mutation in any of the seven SLC7A13-specific residues to alanine significantly reduced SLC7A13’s transporter activities"},
      {"measurement": "cystine uptake", "setting": "[3]", "value": "mutation in any of the seven SLC7A13-specific residues to alanine significantly reduced SLC7A13’s transporter activities"},
      {"measurement": "cystine uptake", "setting": "[4]", "value": "mutation in any of the seven SLC7A13-specific residues to alanine significantly reduced SLC7A13’s transporter activities"}
    ]}
  ]
}
